pKi: −log10 of the molar value.
What follows are compounds tested against Glutamate NMDA receptor (assay: The compound was tested for NMDA antagonist activity against [3H]-CGS- 19755 binding in rat cortex preparation).
With `O=C(CP(=O)(O)O)[C@H]1CCCN[C@H]1C(=O)O` (stereo in doubt; 14) the pKi was 7.19.
Work on `O=C(CP(=O)(O)O)[C@H]1CCCN[C@H]1C(=O)O` (stereo in doubt; 1) yielded a pKi of 7.16.
In the case of `O=C(O)[C@@H]1C[C@H](CP(=O)(O)O)CCN1` (single isomer, unassigned) [SELFOTEL], the pKi was 7.40.
`O=C(O)[C@@H]1NCCC[C@@H]1C(O)CP(=O)(O)O` (stereo not given in full) showed a pKi of 6.97.
For `O=C(CP(=O)(O)O)[C@H]1CCCN[C@H]1C(=O)O` (stereo in doubt; 15), the pKi was less than 6.00.
